Assay results reported in publication PMC10979456, “Trinucleotide mRNA Cap Analogue N6-Benzylated at the Site of Posttranscriptional ^m6Am Mark Facilitates mRNA Purification and Confers Superior Translational Properties In Vitro and In Vivo” (Journal of the American Chemical Society, 2024).

Tests used:
Assay in all cases: time-synchronized fluorescence quenching titration
Type in all cases: binding
[1] = molecular target: T1, heIF4E3 (Homo sapiens, UniProt Q8N5X7)
T1 construct: gene EIF4E3; not described in main text (experimental details in supplement)
T1 sequence (Q8N5X7 whole entry): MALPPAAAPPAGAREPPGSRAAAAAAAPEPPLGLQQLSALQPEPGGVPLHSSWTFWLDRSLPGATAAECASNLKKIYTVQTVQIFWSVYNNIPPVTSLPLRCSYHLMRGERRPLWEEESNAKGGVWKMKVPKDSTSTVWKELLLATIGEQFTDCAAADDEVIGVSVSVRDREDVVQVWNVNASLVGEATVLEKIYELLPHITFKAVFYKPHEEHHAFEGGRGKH
Source text: time-synchronized fluorescence quenching titration on heIF4E3

[2] = molecular target: T2, heIF4E1a (Homo sapiens, UniProt P06730)
T2 construct: gene EIF4E; not described in main text (experimental details in supplement)
T2 sequence (P06730 2-217): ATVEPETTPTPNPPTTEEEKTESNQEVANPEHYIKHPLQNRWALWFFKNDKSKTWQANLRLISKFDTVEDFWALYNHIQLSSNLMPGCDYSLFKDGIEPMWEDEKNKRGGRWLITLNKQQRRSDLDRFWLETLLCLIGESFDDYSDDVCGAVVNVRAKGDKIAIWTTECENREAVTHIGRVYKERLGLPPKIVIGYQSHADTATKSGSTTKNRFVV

[3] = molecular target: T3, h4EHP (eIF4E2) (Homo sapiens, UniProt O60573)
T3 construct: not described in main text (experimental details in supplement)
T3 sequence (O60573 1-245): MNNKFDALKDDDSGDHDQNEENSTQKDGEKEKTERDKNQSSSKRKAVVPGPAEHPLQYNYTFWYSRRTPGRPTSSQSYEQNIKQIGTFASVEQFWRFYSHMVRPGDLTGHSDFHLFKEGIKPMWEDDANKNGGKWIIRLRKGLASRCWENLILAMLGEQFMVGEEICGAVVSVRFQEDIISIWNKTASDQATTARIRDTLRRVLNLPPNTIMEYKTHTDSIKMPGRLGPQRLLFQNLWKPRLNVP
Source text: time-synchronized fluorescence quenching titration on h4EHP (eIF4E2)

Kd [1] [nM] | Kd [2] [nM] | Kd [3] [nM] | SMILES
153 ± 3 | 42.1 ± 0.7 | 1020 ± 19 | CO[C@@H]1[C@H](OP(=O)(O)OC[C@H]2O[C@@H](n3cnc4c(=O)[nH]c(N)nc43)[C@H](O)[C@@H]2O)[C@@H](COP(=O)(O)OP(=O)(O)OP(=O)(O)OC[C@H]2O[C@@H](n3c[n+](C)c4c(=O)[nH]c(N)nc43)[C@H](O)[C@@H]2O)O[C@H]1n1cnc2c(N)ncnc21 [m^7GpppAmpG]
129 ± 14 | – | 611 ± 19 | C[n+]1cn([C@@H]2O[C@H](COP(=O)(O)OP(=O)(O)OP(=O)(O)O)[C@@H](O)[C@H]2O)c2nc(N)[nH]c(=O)c21 [m^7GTP]
95.7 ± 1.7 | 23.9 ± 0.5 | 687 ± 10 | CO[C@@H]1[C@H](OP(=O)(O)OC[C@H]2O[C@@H](n3cnc4c(=O)[nH]c(N)nc43)[C@H](O)[C@@H]2O)[C@@H](COP(=O)(O)OP(=O)(O)OP(=O)(O)OC[C@H]2O[C@@H](n3c[n+](C)c4c(=O)[nH]c(N)nc43)[C@H](O)[C@@H]2O)O[C@H]1n1cnc2c(NCc3ccccc3)ncnc21 [compound 1, m^7Gppp^Bn6AmpG]
140 ± 4 | 46.4 ± 0.6 | 1340 ± 32 | CNc1ncnc2c1ncn2[C@@H]1O[C@H](COP(=O)(O)OP(=O)(O)OP(=O)(O)OC[C@H]2O[C@@H](n3c[n+](C)c4c(=O)[nH]c(N)nc43)[C@H](O)[C@@H]2O)[C@@H](OP(=O)(O)OC[C@H]2O[C@@H](n3cnc4c(=O)[nH]c(N)nc43)[C@H](O)[C@@H]2O)[C@H]1OC [m^7Gppp^m6AmpG]
